# Like-named read-outs stand apart in the source and are kept apart here.
# Columns and labels:
# Format in all cases: in vivo, SD rats
# sciatic nerve of the rat = test system: sciatic nerve of the rat
# Protocol: The experimental methods described in the following test examples were standard procedures unless otherwise specified. All experimental animals used in the following test examples were SD rats purchased from Hunan Slac Jingda Experimental Animal Co., Ltd. Other test materials, unless stated otherwise, were purchased from conventional biochemical reagent suppliers.
# The compounds listed in Table 1 and levobupivacaine hydrochloride (positive control) were administered to three groups of rats fully acclimated to the experimental environment, with one rat per group.
# Solution Preparation: 2 mg/ml Levobupivacaine Hydrochloride Injection: 2.670 ml of 7.5 mg/ml levobupivacaine hydrochloride injection (Batch No. 92S0702) was pipetted into a 10 ml volumetric flask. 0.9% NaCl solution was added until the meniscus was level with the calibration line, and the solution was inverted and mixed thoroughly, to prepare 2 mg/ml levobupivacaine hydrochloride injection. 2 mg/ml Example Compound Solution: 6.6 mg of the example compound was accurately weighed and dissolved in 3.3 ml of 0.9% NaCl solution to prepare a 2 mg/ml example compound solution.
# Both the positive control and the example compound were administered to each rat at 2 mg/ml, with an administration volume of 5 ml/kg, in a single injection near the sciatic nerve of the rat. After the administration, the rat was placed on a preheated hot plate (50±0.1° C.) of an intelligent hot plate instrument. […] The maximum thermal latency was controlled at 60 s. […] Any urine or feces on the hot plate was promptly cleaned and dried before subsequent tests.
# Thermal latency results were expressed as the maximum proportional effect (MPE), calculated using the following formula.
# Wherein: B represented the basal thermal latency of the rats; P was the maximum thermal latency C was the observed thermal latency at the detection time point.
# Measurements were considered invalid if the MPE was less than 50% of the maximum proportional effect. If two consecutive measurements yielded an MPE of less than […], the experiment was terminated.
# [1] = test system: rat subcutaneous infiltration model; experiment: Local anesthetic effect by subcutaneous infiltration, Von Frey needle stimulation of back skin; settings: 1 mg/ml, 0.5 mL subcutaneous injection on the back, 10 rats
# Protocol: After shaving and disinfecting the backs of SD rats (half male and half female) weighing 190-210 grams, a circle with a diameter of approximately 1.5 cm was drawn on one side of the exposed skin. 0.5 mL of a solution containing the drug was subcutaneously injected into the skin in the center. The solution, using physiological saline as the solvent, contained either 2 mg/ml bupivacaine hydrochloride or 1 mg/ml concentration of the compounds listed in Table 2 of the present application. Each group consisted of 10 rats. A Von Frey fiber with a 100-gram force was attached to a needle for local skin stimulation. One minute after drug administration, the rat's response to the stimulus was measured. Testing was conducted at 6 different points within the marked area of drug administration. Skin contraction, avoidance, and other behaviors following stimulation were observed and recorded. Three points in the center and three points around the circle were stimulated, and the number of skin contraction and avoidance behaviors was recorded as N6. […] Each compound was tested on 10 rats.
# [2] = test system: rat subcutaneous infiltration model; experiment: as above
Compound,"Duration/h (sciatic nerve of the rat; rat, in vivo) [h]","Onset Time/min (sciatic nerve of the rat; rat, in vivo) [min]",Duration/h [1] [h],Onset Time/min [1] [min],Duration/h ([2]; Drug Concentration 0.3 mmol/L) [h],Duration/h ([2]; Drug Concentration 1 mmol/L) [h],"Onset Time/min (sciatic nerve of the rat; 2 mg/ml, 5 ml/kg, single injection near the sciatic nerve of the rat, hot plate 50±0.1° C.) [min]"
"CCCC[N+]1(CCCCOc2ccccc2)CCCC[C@H]1C(=O)Nc1ccc(F)cc1 (stereo partly drawn) [Compound of Example 39, (2S)-1-Butyl-2-((4-fluorophenyl)carbamoyl)-1-(4-phenoxybutyl)piperidine bromide]",72 to 96,1,72 to 96,1,24 to 48,48 to 72,
"CCCC[N+]1(CCCCNc2ccc(F)cc2)CCCC[C@H]1C(=O)Nc1c(C)cccc1C (stereo partly drawn) [Compound of Example 3, (2S)-1-Butyl-2-((2,6-dimethylphenyl)carbamoyl)-1-(4-(p-fluorophenylamino)butyl)piperidine bromide]",,,72 to 96,1,24 to 48,48 to 72,1
"CCCC[N+]1(CCCCOc2ccccc2C)CCCC[C@H]1C(=O)Nc1c(C)cccc1C (stereo partly drawn) [Compound of Example 30, (2S)-1-Butyl-2-((2,6-dimethylphenyl)carbamoyl)-1-(4-(o-tolyloxy)butyl)piperidine bromide]",72 to 96,1,72 to 96,1,24 to 48,48 to 72,
